Measurements: patent publication US20030176381A1, “Hyaluronic acid in the treatment of cancer” (priority 2002, published 2003)

Columns and labels:
[1] = system: T-24 human bladder cancer cells; assay: MTT cell proliferation, T-24; assay type: cell-based
Description: (§1) Cell proliferation was measured using dimethylthiazoldiphenyltetrazolium (MTT) reduction (Mosman et al. J. Immunol. Methods 65:55, 1983). Unless otherwise stated, 100 Al of 5 mg of MTT (Sigma-Aldrich, St. Louis, Mo., USA) dissolved in 1 ml of PBS was added into each well. After 4 h, medium was removed from each well, 1.0 ml of acid-isopropanol (0.04 N HCI in isopropanol) was added and reduced MTT was solubilized by mixing. Absorbency of the reaction product was measured at a wavelength of 570 nm using a multiplate spectrophotometer reader (Elx800 Model, Bio-TEK Instruments Inc., Winooski, Vt., USA).
(§2) Unless stated otherwise 1.0 x 10^5 cells/ml were seeded in 6-well flat-bottom tissue culture plates and were maintained for 48 h at 370 C in a 5% CO2 atmosphere.
(§3) PC-3, LNCAP and Du-145 human prostate cancer cells; MCF-7 human breast cancer cells; HT-1080 human fibrosarcoma cancer cells; B16F1 murine melanoma cells; and, UMUC-3, RT-4, HT-1376 and T-24 human bladder cancer cells were incubated with 0.8, 8.0 and 80 μg/ml of 5.0-7.5 x 10^5 Da HA (Table 2).
(§4) Unless stated otherwise 2.0 x 10^4 cells/ml were seeded in 24-well plates and were maintained for 48 h at 370 C in a 5% CO2 atmosphere. MTT was used at 50 μl per well.
(§5) T-24 human bladder cancer cells, PC-3 and Du-145 human prostate cancer cells, and MCF-7 human breast cancer cell were incubated with saline or with 80.0 jg/ml of 5.0-7.5 x 105 Da HA +1.0 μg/ml of M-DNA (Table 4).
HT-1376, RT-4 and T-24 human bladder cancer cells were incubated with 0.8 pg/ml of 5.0-7.5 x 10^5 Da HA +1.0 ug/ml of MCC (Table 5).
(§6) CD44 expression and the inhibition of proliferation by 5.0-7.5 x 10^5 Da HA were measured using Jurkat T cell leukemia cells; MCF-7 human breast cancer cells; RT-4, T-24, HT-1376 and UMUC-3 human bladder cancer cells; and, PC-3, Du-145 and LNCaP prostate cancer cells (Table 8)

[2] = system: MCF-7 human breast cancer cells; assay: MTT cell proliferation, MCF-7; assay type: cell-based
Description: as §1, §2, §3, §4, §5
MTT was used at 50 µl per well.
Example 8 s HA potentiation of the anti-neoplastic effect ofchemotherapeutic drugs RT-4 human bladder cancer cells and MCF-7 human breast cancer cells were incubated as in Example 6 with 0.0, 0.008 or 0.08 pg/ml of 5.0-7.5 x 10^5 Da HA +0.1 jg/ml of CIS, +1.0 jg/ml of 5-FU or +10 jig/ml of 5-FU (Table 7).
as §6

[3] = system: UMUC-3 human bladder cancer cells; assay: MTT cell proliferation, UMUC-3; assay type: cell-based; details: 48 h
Description: as §1, §2, §3, §6

[4] = system: MCF-7 human breast cancer cells; assay: MTT cell proliferation, MCF-7; assay type: cell-based; details: MCF-7 (2.5 X 10^5 cells/ml)
[5] = system: Du-145 human prostate cancer cells; assay: MTT cell proliferation, Du-145; assay type: cell-based
Description: as §1, §2, §3
(§7) PC-3. LNCaP and Du-145 human prostate cancer cells were incubated with 8.0 jg/ml of 5.0-7.5 x 105 Da HA or of <1.5 x 10^4 Da HA (Table 3).
as §4, §5, §6

[6] = system: PC-3 human prostate cancer cells; assay: MTT cell proliferation, PC-3; assay type: cell-based
Description: as §1, §2, §3, §7, §4, §5, §6

[7] = system: LNCaP human prostate cancer cells; assay: MTT cell proliferation, LNCaP; assay type: cell-based; details: 48 h
Description: as §1, §2, §3, §7, §6

[8] = system: IL-6 production by peripheral blood mononuclear cells; assay: IL-6 production by PBMCs (ELISA); assay type: cell-based, humans
Description: Peripheral blood mononuclear cells (hereinafter, “PBMCs”) were isolated from the blood of 5 healthy humans by Ficoll-Hypaque (Amersham Pharmacia Biotech, Baie d'Urfee, Quebec, Canada) density gradient centrifugation of whole blood. Stimulation of IL-6 and IL-12 production by the immune system cells was determined using the appropriate commercial ELISA (BioSource, Camarillo, CA, USA). Results are expressed as the “fold” (x) increases in cytokine production by treated cells compared to control cells.
PBMCs were incubated with 1 mg/ml of 5.0-7.5 x 105 Da and production of IL-6 and IL-12 was determined (Table 9).
PBMCs, isolated from the blood of individual #1, were incubated with 0.008, 0.04, 0.2 and 1 mg/ml of 5.0-7.5 x 10^5 Da (Table 10)

[9] = HA 80.0 μg/ml alone (+ saline), 24-well, Example 6
[10] = HA 8.0 μg/ml, 48 h, listed as 0.5-7.5 × 10^5 Da HA

Substance: Hyaluronic acid [5.0-7.5 × 10^5 Da HA]
- % INHIBITION of cell proliferation ([1]; HA 0.8 μg/ml, 48 h): 10%
- % INHIBITION of cell proliferation ([1]; HA 8.0 μg/ml, 48 h): 8%
- % INHIBITION of cell proliferation [1, 9]: 0%
- % INHIBITION of cell proliferation ([1]; HA 80.0 μg/ml, 48 h): 0%
- % INHIBITION of cell proliferation ([1]; HA at 0.8 μg/ml alone (+ saline), 24-well, Example 6): 8%
- % INHIBITION of cell proliferation ([2]; HA 0.008 μg/ml alone (+ saline)): 12%
- % INHIBITION of cell proliferation ([2]; HA 0.08 μg/ml alone (+ saline)): 12%
- % INHIBITION of cell proliferation ([2]; HA 0.8 μg/ml, 48 h): 19%
- % INHIBITION of cell proliferation ([2]; HA 8.0 μg/ml, 48 h): 24%
- % INHIBITION of cell proliferation [2, 9]: 35%
- % INHIBITION of cell proliferation ([2]; HA 80.0 μg/ml, 48 h): 35%
- % INHIBITION of cell proliferation ([3]; HA 0.8 μg/ml): 10%
- % INHIBITION of cell proliferation ([3]; HA 8.0 μg/ml): 10%
- % INHIBITION of cell proliferation ([3]; HA 80.0 μg/ml): 2%
- % INHIBITION of cell proliferation ([4]; HA 0.01 μg/ml alone): 6%
- % INHIBITION of cell proliferation ([4]; HA 0.1 μg/ml alone): 5%
- % INHIBITION of cell proliferation ([5]; HA 0.8 μg/ml, 48 h): 6%
- % INHIBITION of cell proliferation [5, 10]: 15%
- % INHIBITION of cell proliferation [5, 9]: 38%
- % INHIBITION of cell proliferation ([5]; HA 80.0 μg/ml, 48 h): 38%
- % INHIBITION of cell proliferation ([6]; HA 0.8 μg/ml, 48 h): 15%
- % INHIBITION of cell proliferation [6, 10]: 26%
- % INHIBITION of cell proliferation [6, 9]: 30%
- % INHIBITION of cell proliferation ([7]; HA 0.8 μg/ml): 7%
- % INHIBITION of cell proliferation ([7]; HA 8.0 μg/ml, listed as 0.5-7.5 × 10^5 Da HA): 13%
- IL-6 production, fold increase vs control cells ([8]; PBMCs of individual 1, HA 1 mg/ml): 3.8x
- IL-6 production, fold increase vs control cells ([8]; PBMCs of individual 2, HA 1 mg/ml): 1.8x
- IL-6 production, fold increase vs control cells ([8]; PBMCs of individual 3, HA 1 mg/ml): 4.1x
- IL-6 production, fold increase vs control cells ([8]; PBMCs of individual 4, HA 1 mg/ml): 1.4x
- IL-6 production, fold increase vs control cells ([8]; PBMCs of individual 5, HA 1 mg/ml): 6.3x
- IL-6 production, fold increase vs control cells ([8]; PBMCs of individual #1, HA 0.008 mg/ml): 2.4x
- IL-6 production, fold increase vs control cells ([8]; PBMCs of individual #1, HA 0.040 mg/ml): 3.5x
- IL-6 production, fold increase vs control cells ([8]; PBMCs of individual #1, HA 0.200 mg/ml): 2.9x
